Results published in the supplement of paper PMC10307832.

What was measured:
Assay in all cases: relative viability (nuclei count vs DMSO), 5 days (fraction); higher = more cells survive
[1] = compound: Cc1ccc2nc(NCCN)c3ncc(C)n3c2c1 + C[C@@H](Oc1cc(-c2cnn(C3CCNCC3)c2)cnc1N)c1c(Cl)ccc(F)c1Cl [Crizotinib] (partner 1 µM)
Summary of the method: (§1)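 Relative viability equals treated-well nuclei counts divided by vehicle-well nuclei counts. Counts came from 4× images of lung cancer cell lines grown in 1536-well plates for 5 days after pin-tool dosing on the day after seeding. Dosing used one drug alone or a fixed anchor-drug dose plus five library-drug doses (not always all listed) in √10 steps, and values are medians of duplicate plates.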

Salubrinal + Dasatinib = compound: O=C(/C=C/c1ccccc1)NC(NC(=S)Nc1cccc2cccnc12)C(Cl)(Cl)Cl [Salubrinal] + Cc1nc(Nc2ncc(C(=O)Nc3c(C)cccc3Cl)s2)cc(N2CCN(CCO)CC2)n1 [Dasatinib] (partner 0.075 µM)
Summary of the method: as §1

Salubrinal + Luminespib = compound: O=C(/C=C/c1ccccc1)NC(NC(=S)Nc1cccc2cccnc12)C(Cl)(Cl)Cl [Salubrinal] + CCNC(=O)c1noc(-c2cc(C(C)C)c(O)cc2O)c1-c1ccc(CN2CCOCC2)cc1 [Luminespib] (partner 0.01 µM)
Summary of the method: as §1

Salubrinal + Navitoclax = compound: O=C(/C=C/c1ccccc1)NC(NC(=S)Nc1cccc2cccnc12)C(Cl)(Cl)Cl [Salubrinal] + CC1(C)CCC(c2ccc(Cl)cc2)=C(CN2CCN(c3ccc(C(=O)NS(=O)(=O)c4ccc(N[C@H](CCN5CCOCC5)CSc5ccccc5)c(S(=O)(=O)C(F)(F)F)c4)cc3)CC2)C1 [Navitoclax] (partner 0.5 µM)
Summary of the method: as §1

Row | Cell Line | relative viability ([1]; first compound 0.04 µM) | relative viability ([1]; first compound 0.1265 µM) | relative viability ([1]; first compound 0.4 µM) | relative viability ([1]; first compound 1.265 µM) | relative viability ([1]; first compound 4 µM) | relative viability (Salubrinal + Dasatinib; first compound 0.08 µM) | relative viability (Salubrinal + Dasatinib; first compound 0.253 µM) | relative viability (Salubrinal + Dasatinib; first compound 0.8 µM) | relative viability (Salubrinal + Dasatinib; first compound 2.53 µM) | relative viability (Salubrinal + Dasatinib; first compound 8 µM) | relative viability (Salubrinal + Luminespib; first compound 0.08 µM) | relative viability (Salubrinal + Luminespib; first compound 0.253 µM) | relative viability (Salubrinal + Luminespib; first compound 0.8 µM) | relative viability (Salubrinal + Luminespib; first compound 2.53 µM) | relative viability (Salubrinal + Luminespib; first compound 8 µM) | relative viability (Salubrinal + Navitoclax; first compound 0.08 µM) | relative viability (Salubrinal + Navitoclax; first compound 0.253 µM) | relative viability (Salubrinal + Navitoclax; first compound 0.8 µM) | relative viability (Salubrinal + Navitoclax; first compound 2.53 µM) | relative viability (Salubrinal + Navitoclax; first compound 8 µM)
1 | LU99A | 0.636 | 0.549 | 0.49 | 0.565 | 0.635 | 0.537 | 0.597 | 0.688 | 0.593 | 0.416 | 0.234 | 0.264 | 0.293 | 0.243 | 0.248 | 0.942 | 0.864 | 0.798 | 0.858 | 0.828
2 | LXF-289 | 0.806 | 0.834 | 0.842 | 0.857 | 0.856 | 0.173 | 0.241 | 0.234 | 0.236 | 0.15 | 0.74 | 0.595 | 0.569 | 0.727 | 0.643 | 0.99 | 0.898 | 1.04 | 0.943 | 0.868
3 | NCI-H23 | 0.731 | 0.549 | 0.554 | 0.437 | 0.447 | 0.881 | 0.942 | 0.696 | 0.78 | 0.925 | 0.213 | 0.227 | 0.196 | 0.217 | 0.216 | 1.01 | 0.722 | 0.91 | 0.759 | 1.04
4 | NCI-H322M | 1.02 | 0.882 | 0.832 | 0.944 | 0.876 | 0.267 | 0.24 | 0.256 | 0.265 | 0.274 | 1.06 | 0.794 | 0.866 | 0.761 | 0.712 | 1.38 | 1.19 | 1.34 | 1.23 | 1.16
5 | NCI-H441 | 0.904 | 0.665 | 0.684 | 0.617 | 0.947 | 0.781 | 0.5 | 0.756 | 0.65 | 0.47 | 0.312 | 0.39 | 0.393 | 0.338 | 0.385 | 0.437 | 0.711 | 0.642 | 0.678 | 0.913
6 | NCI-H460 | 0.98 | 0.923 | 0.952 | 0.851 | 0.64 | 0.641 | 0.56 | 0.644 | 0.565 | 0.422 | 0.0402 | 0.0238 | 0.031 | 0.0302 | 0.0364 | 1.43 | 0.487 | 1.45 | 1.17 | 1.03
7 | NCI-H520 | 0.725 | 0.699 | 0.761 | 0.791 | 0.639 | 0.252 | 0.236 | 0.292 | 0.231 | 0.292 | 0.255 | 0.218 | 0.279 | 0.217 | 0.203 | 1.16 | 1.04 | 1.32 | 1.11 | 1.18
8 | NCI-H596 | 1.06 | 0.929 | 1.03 | 0.961 | 0.851 | 0.633 | 0.509 | 0.569 | 0.633 | 0.56 | 0.971 | 0.775 | 0.972 | 1.2 | 0.92 | 1.01 | 1.09 | 0.959 | 0.869 | 1.01
9 | NCI-H647 | 1.29 | 1.03 | 1.12 | 0.93 | 0.852 | 0.168 | 0.203 | 0.235 | 0.243 | 0.137 | 0.208 | 0.243 | 0.27 | 0.356 | 0.154 | 1.31 | 1.12 | 1.22 | 1.07 | 1.03
10 | NCI-H727 | 0.984 | 0.82 | 0.779 | 0.811 | 0.925 | 0.311 | 0.38 | 0.341 | 0.409 | 0.375 | 0.407 | 0.337 | 0.337 | 0.312 | 0.274 | 0.519 | 0.482 | 0.443 | 0.395 | 0.474
11 | NCI-H838 | 0.844 | 0.777 | 0.795 | 0.789 | 0.762 | 0.304 | 0.288 | 0.318 | 0.262 | 0.266 | 0.264 | 0.258 | 0.285 | 0.341 | 0.272 | 1.35 | 1.21 | 1.22 | 1.15 | 1.23
12 | NCI-H1355 | 1.1 | 1.15 | 1.04 | 1.01 | 0.983 | 0.764 | 0.569 | 0.806 | 0.685 | 0.603 | 0.801 | 0.744 | 0.555 | 0.72 | 0.705 | 1.02 | 1.07 | 1.07 | 0.949 | 0.87
13 | NCI-H1437 | 0.96 | 0.968 | 0.965 | 0.952 | 0.915 | 0.406 | 0.42 | 0.487 | 0.507 | 0.243 | 1.21 | 0.999 | 1.19 | 1.08 | 1.12 | 1.14 | 1.06 | 1.16 | 1.08 | 1.09
14 | NCI-H1650 | 0.965 | 0.969 | 0.995 | 0.97 | 0.571 | 0.366 | 0.35 | 0.321 | 0.357 | 0.294 | 0.212 | 0.213 | 0.194 | 0.19 | 0.216 | 1.17 | 1.06 | 1.13 | 1.19 | 1.16
15 | NCI-H1651 | 0.732 | 0.795 | 0.838 | 0.888 | 0.814 | 0.487 | 0.259 | 0.452 | 0.393 | 0.35 | 0.99 | 0.897 | 0.962 | 0.743 | 0.827 | 1.1 | 1.01 | 1.21 |  | 0.979
16 | NCI-H1666 | 0.998 | 1.01 | 0.874 | 0.852 | 0.907 | 0.845 | 0.721 | 0.799 | 0.806 | 0.613 | 0.984 | 0.903 | 0.95 | 0.945 | 1.1 | 0.979 | 0.992 | 1.24 | 0.93 | 0.878
